Tests used:
Experiment in all cases: Protein kinase inhibition assay
Format in all cases: biochemical
SGK(h) = SGK(h) (Homo sapiens, UniProt O00141); conditions: read-out: percent residual activity of SGK(h)
Procedure: (§1) Certain compounds were tested for activity in protein kinase inhibition assays. All substrates were dissolved and diluted to working stocks in de-ionized water, apart from histone H1 (10× working stock in 20 mM MOPS pH 7.0), PDKtide (10× working stock in 50 mM Tris pH 7.0) ATF2 (which is typically stored at a 20× working stock in 50 mM Tris pH 7.5, 150 mM NaCl, 0.1 mM EGTA, 0.03% Brij-35, 50% glycerol, 1 mM benzamidine, 0.2 mM PMSF and 0.1% R-mercaptoethanol), KKLNRTLSFAEPG (SEQ ID NO:203) and RRRLSFAEPG (SEQ ID NO:204) (50 mM HEPES pH 7.4) and GGEEEEYFELVKKKK (SEQ ID NO:205) (20 mM MOPS pH 7.0). All kinases were pre-diluted to a 10× working concentration prior to addition into the assay. The composition of the dilution buffer for each kinase is detailed below.
(§2) In a final reaction volume of 25 μl, SGK (h) (5-10 mU) is incubated with 8 mM MOPS pH 7.0, 0.2 mM EDTA, 30 μM GRPRTSSFAEGKK (SEQ ID NO:226), 10 mM MgAcetate and [gamma-33P-ATP] (specific activity approx. 500 cpm/pmol, concentration as required). The reaction is initiated by the addition of the MgATP mix. After incubation for 40 minutes at room temperature, the reaction is stopped by the addition of 5 μl of a 3% phosphoric acid solution. 10 μl of the reaction is then spotted onto a P30 filtermat and washed three times for 5 minutes in 75 mM phosphoric acid and once in methanol prior to drying and scintillation counting.

Axl(h) = Axl(h) (Homo sapiens, UniProt P30530); conditions: read-out: percent residual activity of Axl(h)
Procedure: as §1
as §2, with “μl, Axl” for “μl, SGK”, “EDTA, 250” for “EDTA, 30”, “μM KKSRGDYMTMQIG” for “μM GRPRTSSFAEGKK”, “ID NO:210),” for “ID NO:226),”, “and [y-33P-ATP]” for “and [gamma-33P-ATP]”

IRAK4(h) = IRAK4(h) (Homo sapiens, UniProt Q9NWZ3); conditions: read-out: percent residual activity of IRAK4(h)
Procedure: as §1
as §2, with “IRAK4” for “SGK”, “0.33 mg/ml myelin basic protein,” for “30 μM GRPRTSSFAEGKK (SEQ ID NO:226),”

ALK4(h) = ALK4(h) (Homo sapiens, UniProt P36896); conditions: read-out: percent residual activity of ALK4(h)
Procedure: as §1
as §2, with “ALK4” for “SGK”, “2 mg/ml casein,” for “30 μM GRPRTSSFAEGKK (SEQ ID NO:226),”

Fer(h) = Fer(h) (Homo sapiens, UniProt P16591); conditions: read-out: percent residual activity of Fer(h)
Procedure: as §1
In a final reaction volume of 25 μl, Fer (h) (5-10 mU) is incubated with 8 mM MOPS pH 7.0, 0.2 mM EDTA, 1 mM MnCl2, 250 μM KKKSPGEYVNIEFG (SEQ ID NO:207), 10 mM MgAcetate and [gamma-33P-ATP] (specific activity approx. 500 cpm/pmol, concentration as required). The reaction is initiated by the addition of the MgATP mix. After incubation for 40 minutes at room temperature, the reaction is stopped by the addition of 5 μl of a 3% phosphoric acid solution. […]

PDGFRβ(h) = PDGFRβ(h) (Homo sapiens, UniProt P09619); conditions: read-out: percent residual activity of PDGFRβ(h)
Procedure: as §1
as §2, with “PDGFRβ” for “SGK”, “0.1 mg/ml poly(Glu, Tyr) 4:1, 10 mM MnCl2,” for “30 μM GRPRTSSFAEGKK (SEQ ID NO:226),”, “Filtermat A” for “P30 filtermat”

Sequence of Fer(h) (P16591 whole entry): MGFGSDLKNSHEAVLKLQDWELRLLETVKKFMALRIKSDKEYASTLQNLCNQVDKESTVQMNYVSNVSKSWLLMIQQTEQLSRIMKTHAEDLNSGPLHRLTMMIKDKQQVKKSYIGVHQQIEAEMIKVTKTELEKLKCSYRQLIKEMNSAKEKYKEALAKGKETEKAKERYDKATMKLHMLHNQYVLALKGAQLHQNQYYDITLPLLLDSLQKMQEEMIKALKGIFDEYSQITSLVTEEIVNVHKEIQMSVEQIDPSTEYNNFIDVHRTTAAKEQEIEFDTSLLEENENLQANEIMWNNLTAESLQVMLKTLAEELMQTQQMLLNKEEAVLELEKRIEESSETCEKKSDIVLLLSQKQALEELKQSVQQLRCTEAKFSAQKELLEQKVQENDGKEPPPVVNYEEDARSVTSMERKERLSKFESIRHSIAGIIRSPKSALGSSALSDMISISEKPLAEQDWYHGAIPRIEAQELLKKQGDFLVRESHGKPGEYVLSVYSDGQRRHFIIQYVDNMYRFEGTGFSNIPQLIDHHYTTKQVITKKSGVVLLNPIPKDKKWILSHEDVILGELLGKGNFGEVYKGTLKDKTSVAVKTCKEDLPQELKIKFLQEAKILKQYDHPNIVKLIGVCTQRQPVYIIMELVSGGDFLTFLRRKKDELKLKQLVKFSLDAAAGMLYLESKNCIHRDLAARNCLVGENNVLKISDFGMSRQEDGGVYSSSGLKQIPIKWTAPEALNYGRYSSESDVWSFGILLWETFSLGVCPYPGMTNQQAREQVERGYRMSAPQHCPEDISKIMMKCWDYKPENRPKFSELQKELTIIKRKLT
Sequence of ALK4(h) (P36896 24-505): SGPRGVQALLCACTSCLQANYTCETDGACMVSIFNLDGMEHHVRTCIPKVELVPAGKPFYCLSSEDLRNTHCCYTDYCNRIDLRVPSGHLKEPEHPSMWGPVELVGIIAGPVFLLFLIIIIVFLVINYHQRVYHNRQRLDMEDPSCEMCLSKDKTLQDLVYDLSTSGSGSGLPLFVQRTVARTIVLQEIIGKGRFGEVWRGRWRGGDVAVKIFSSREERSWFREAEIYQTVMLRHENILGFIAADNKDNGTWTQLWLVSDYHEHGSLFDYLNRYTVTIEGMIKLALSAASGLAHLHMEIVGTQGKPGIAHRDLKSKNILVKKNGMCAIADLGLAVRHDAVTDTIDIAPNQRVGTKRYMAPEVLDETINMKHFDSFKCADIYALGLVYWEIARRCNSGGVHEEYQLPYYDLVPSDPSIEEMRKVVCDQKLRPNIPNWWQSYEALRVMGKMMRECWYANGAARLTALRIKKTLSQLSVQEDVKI
Sequence of SGK(h) (O00141 whole entry): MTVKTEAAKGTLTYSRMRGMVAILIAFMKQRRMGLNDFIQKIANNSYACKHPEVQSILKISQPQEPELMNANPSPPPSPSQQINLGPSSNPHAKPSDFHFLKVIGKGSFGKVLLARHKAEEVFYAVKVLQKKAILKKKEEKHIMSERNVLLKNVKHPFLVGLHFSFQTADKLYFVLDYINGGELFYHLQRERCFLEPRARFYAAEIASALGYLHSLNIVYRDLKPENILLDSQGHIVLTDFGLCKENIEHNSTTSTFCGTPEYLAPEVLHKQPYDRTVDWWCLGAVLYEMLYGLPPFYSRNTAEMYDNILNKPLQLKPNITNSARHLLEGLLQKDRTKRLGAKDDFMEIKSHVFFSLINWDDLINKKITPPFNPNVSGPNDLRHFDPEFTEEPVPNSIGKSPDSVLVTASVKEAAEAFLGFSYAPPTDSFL
Sequence of PDGFRβ(h) (P09619 33-1106): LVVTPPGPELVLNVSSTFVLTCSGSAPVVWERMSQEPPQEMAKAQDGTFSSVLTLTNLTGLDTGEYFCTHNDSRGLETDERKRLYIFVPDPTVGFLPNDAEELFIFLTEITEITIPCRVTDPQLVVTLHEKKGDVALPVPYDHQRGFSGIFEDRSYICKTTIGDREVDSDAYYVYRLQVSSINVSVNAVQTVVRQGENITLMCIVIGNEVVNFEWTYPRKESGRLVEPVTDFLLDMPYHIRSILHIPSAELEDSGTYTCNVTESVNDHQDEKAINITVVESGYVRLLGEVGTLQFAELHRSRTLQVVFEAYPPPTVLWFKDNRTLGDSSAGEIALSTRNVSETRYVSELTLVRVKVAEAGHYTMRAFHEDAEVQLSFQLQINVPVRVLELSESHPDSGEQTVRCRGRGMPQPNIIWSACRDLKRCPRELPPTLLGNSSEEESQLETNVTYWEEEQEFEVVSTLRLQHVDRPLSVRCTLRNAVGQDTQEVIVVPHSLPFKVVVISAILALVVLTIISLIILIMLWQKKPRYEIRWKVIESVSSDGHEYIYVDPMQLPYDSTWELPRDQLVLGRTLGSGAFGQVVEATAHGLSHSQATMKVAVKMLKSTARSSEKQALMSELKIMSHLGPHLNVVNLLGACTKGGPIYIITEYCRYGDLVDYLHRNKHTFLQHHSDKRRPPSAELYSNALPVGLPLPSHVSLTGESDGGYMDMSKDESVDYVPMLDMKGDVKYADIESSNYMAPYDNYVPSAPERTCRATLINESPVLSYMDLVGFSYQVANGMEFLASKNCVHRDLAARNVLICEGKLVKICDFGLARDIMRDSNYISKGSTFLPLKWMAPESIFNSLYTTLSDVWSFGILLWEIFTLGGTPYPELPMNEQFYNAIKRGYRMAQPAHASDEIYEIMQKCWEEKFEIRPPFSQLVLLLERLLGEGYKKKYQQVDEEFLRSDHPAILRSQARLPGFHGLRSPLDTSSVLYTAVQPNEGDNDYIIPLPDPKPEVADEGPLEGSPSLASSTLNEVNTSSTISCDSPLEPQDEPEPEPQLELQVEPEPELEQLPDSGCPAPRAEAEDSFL
Sequence of Axl(h) (P30530 26-894): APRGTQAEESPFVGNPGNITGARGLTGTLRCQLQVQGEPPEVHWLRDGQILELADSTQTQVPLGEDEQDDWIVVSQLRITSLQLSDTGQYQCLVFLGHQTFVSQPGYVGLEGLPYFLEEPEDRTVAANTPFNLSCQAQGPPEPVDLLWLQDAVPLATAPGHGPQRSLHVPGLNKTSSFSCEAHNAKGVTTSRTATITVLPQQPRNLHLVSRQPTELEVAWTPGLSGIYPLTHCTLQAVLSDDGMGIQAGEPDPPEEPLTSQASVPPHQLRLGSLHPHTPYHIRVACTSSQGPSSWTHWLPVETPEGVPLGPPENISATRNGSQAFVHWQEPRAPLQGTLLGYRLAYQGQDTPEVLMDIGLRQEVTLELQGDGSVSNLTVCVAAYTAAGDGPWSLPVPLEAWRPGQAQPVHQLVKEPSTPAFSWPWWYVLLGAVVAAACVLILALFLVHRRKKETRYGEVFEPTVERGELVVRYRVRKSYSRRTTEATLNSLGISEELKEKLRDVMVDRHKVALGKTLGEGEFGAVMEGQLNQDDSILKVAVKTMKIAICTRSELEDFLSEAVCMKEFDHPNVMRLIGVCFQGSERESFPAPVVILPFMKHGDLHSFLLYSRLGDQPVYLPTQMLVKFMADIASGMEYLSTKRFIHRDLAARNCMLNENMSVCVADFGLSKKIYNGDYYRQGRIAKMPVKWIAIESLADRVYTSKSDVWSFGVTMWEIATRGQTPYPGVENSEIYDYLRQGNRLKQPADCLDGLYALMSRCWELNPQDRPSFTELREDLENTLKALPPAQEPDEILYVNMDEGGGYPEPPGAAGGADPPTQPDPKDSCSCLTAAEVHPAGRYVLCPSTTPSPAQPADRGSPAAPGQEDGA
Sequence of IRAK4(h) (Q9NWZ3 whole entry): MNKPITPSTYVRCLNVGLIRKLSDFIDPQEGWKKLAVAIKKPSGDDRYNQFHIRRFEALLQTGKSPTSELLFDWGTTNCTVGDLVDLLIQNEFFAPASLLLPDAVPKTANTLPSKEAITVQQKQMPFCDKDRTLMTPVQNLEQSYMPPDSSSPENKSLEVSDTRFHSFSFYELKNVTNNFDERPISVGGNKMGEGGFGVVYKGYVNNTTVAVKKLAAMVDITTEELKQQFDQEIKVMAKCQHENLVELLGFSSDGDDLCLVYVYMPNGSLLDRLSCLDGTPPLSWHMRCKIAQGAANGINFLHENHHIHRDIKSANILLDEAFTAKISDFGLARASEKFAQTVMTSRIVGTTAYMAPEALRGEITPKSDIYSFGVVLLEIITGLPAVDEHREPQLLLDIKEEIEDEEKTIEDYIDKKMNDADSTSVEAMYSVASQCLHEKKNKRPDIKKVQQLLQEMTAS

| remaining activity at 2.5 µM (SGK(h)) [%] | remaining activity at 2.5 µM (Axl(h)) [%] | remaining activity at 2.5 µM (IRAK4(h)) [%] | remaining activity at 2.5 µM (ALK4(h)) [%] | remaining activity at 2.5 µM (Fer(h)) [%] | remaining activity at 2.5 µM (PDGFRβ(h)) [%] | SMILES |
| --- | --- | --- | --- | --- | --- | --- |
| 103 | 102 | 107 | 103 | 94 | 103 | CC(=O)N1CCN(c2ccc3c(=O)c(C(=O)NCCN4CCCC4)c4n(C)c5ccccc5n4c3n2)CC1 [Compound B-1] |
| 50 | 75 | 98 | 108 | 84 | 103 | CN1CCCC1CCNC(=O)c1cn2c3c(c(N4CCC(c5cnccn5)C4)c(F)cc3c1=O)Oc1cc3ccccc3cc1-2 (stereo not drawn) [Compound A-1] |
